The target of one assay is T1, MAP3K5 (ASK1) (Homo sapiens, UniProt Q99683).
T1 sequence (Q99683 1-1374): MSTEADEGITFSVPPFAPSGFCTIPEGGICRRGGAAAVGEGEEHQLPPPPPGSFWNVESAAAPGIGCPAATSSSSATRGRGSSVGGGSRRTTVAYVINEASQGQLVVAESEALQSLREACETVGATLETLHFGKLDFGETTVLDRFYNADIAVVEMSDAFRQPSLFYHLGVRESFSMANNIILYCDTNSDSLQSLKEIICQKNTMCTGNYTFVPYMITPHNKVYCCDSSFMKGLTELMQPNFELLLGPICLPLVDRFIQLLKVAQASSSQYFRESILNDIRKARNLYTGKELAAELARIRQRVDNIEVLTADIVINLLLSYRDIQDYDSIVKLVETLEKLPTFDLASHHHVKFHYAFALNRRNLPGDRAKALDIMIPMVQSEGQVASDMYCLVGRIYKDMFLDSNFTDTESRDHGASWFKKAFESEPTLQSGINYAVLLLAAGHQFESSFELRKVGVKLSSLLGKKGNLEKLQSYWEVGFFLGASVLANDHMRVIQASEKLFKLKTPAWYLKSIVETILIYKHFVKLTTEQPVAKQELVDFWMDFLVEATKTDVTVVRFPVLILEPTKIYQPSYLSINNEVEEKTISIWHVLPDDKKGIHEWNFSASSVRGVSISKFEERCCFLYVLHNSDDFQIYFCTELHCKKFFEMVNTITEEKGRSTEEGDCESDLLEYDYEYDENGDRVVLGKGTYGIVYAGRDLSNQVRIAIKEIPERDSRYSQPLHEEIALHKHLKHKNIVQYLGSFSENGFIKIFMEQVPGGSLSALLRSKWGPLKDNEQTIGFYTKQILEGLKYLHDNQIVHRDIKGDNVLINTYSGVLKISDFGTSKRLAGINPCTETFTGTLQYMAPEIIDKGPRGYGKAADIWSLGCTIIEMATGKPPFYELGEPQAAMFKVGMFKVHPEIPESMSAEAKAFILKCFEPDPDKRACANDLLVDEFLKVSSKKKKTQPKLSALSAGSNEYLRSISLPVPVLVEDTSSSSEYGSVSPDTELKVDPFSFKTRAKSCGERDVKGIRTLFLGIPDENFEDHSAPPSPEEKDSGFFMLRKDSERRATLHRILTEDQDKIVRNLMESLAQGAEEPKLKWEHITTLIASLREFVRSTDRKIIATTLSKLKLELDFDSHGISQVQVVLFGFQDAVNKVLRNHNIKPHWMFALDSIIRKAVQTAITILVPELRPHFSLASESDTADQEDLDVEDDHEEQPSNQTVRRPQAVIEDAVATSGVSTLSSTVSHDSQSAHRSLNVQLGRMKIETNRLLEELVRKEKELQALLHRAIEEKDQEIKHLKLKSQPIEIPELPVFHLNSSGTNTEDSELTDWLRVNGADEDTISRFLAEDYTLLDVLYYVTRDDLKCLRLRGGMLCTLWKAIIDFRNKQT
In words: SelectScreen kinase assay.

Assay [1] concerns the target T2, endogenous FES^S700C in HL-60 cells (Homo sapiens, UniProt P07332, S700C).
T2 construct: endogenous in cells; host or cells: HL-60 FES^S700C clone, differentiated to macrophages or neutrophils
The assay can be described thus: Gel-based target engagement during neutrophil differentiation. The format is cell-based. To be noted: 100 nM; Supplementary Figure 12b; individual replicates; listed as WEL028.

Another assay deals with CDK3/cyclin E1 (Homo sapiens, UniProt Q00526). In words: SelectScreen kinase assay. To be noted: for Inhibition at 1 µM (%): CDK3/cyclin E1, LanthaScreen Binding. For orientation: TR-FRET usually uses a lanthanide donor and a delayed reading to cut background.
Chain of CDK3/cyclin E1 (Q00526 whole entry): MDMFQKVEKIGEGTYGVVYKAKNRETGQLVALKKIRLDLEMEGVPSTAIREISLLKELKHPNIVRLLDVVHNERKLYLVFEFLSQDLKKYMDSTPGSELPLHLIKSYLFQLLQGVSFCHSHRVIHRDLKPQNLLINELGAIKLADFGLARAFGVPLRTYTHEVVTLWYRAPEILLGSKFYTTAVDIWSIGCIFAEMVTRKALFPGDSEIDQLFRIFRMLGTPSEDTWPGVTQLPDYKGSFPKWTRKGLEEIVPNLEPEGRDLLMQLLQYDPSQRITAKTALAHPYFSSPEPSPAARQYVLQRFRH
Chain of CDK3/cyclin E1 (P24864 whole entry partner): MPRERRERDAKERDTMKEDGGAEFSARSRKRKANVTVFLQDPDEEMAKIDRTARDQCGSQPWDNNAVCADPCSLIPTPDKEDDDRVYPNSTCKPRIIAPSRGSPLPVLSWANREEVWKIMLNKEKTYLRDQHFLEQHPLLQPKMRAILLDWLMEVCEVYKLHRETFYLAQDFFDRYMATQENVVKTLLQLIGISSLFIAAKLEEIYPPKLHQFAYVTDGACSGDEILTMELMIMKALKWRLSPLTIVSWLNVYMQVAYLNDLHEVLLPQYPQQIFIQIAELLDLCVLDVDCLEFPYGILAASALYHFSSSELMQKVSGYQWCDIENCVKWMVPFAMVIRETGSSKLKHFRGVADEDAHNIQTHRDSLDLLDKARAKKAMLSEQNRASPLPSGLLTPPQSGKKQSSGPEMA
Another assay concerns the target PLK1 (Homo sapiens, UniProt P53350). The assay can be described thus: SelectScreen kinase assay.
The next assay addresses TLK1 (Homo sapiens, UniProt Q9UKI8). The assay can be described thus: SelectScreen kinase assay.
The target in another assay is STK32B (YANK2) (Homo sapiens, UniProt Q9NY57). In words: SelectScreen kinase assay.
Chain of STK32B (YANK2) (Q9NY57 whole entry): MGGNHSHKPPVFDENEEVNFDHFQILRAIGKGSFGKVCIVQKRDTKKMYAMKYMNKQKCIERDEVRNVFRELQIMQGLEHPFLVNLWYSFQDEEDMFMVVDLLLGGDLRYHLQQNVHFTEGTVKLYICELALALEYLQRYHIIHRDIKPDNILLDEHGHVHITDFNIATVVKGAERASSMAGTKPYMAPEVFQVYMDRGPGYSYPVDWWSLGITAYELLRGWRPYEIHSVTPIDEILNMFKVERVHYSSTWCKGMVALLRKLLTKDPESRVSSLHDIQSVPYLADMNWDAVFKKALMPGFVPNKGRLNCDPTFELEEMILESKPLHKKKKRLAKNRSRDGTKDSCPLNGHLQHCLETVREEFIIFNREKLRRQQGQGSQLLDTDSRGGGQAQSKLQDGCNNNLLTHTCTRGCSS
The mark [2] stands for this setting: 1 h, 1 μM WEL028, 1 h preincubation.
The mark [3] stands for this setting: read-out: Inhibition at 1 µM (%), 1 µM, LanthaScreen Binding.

Where “and” joins values, the source holds several entries; their conditions need not be identical. Equal values may be shown once. Read-outs that look alike come from different tables or passages of the source.

T2 sequence (P07332 whole entry S700C): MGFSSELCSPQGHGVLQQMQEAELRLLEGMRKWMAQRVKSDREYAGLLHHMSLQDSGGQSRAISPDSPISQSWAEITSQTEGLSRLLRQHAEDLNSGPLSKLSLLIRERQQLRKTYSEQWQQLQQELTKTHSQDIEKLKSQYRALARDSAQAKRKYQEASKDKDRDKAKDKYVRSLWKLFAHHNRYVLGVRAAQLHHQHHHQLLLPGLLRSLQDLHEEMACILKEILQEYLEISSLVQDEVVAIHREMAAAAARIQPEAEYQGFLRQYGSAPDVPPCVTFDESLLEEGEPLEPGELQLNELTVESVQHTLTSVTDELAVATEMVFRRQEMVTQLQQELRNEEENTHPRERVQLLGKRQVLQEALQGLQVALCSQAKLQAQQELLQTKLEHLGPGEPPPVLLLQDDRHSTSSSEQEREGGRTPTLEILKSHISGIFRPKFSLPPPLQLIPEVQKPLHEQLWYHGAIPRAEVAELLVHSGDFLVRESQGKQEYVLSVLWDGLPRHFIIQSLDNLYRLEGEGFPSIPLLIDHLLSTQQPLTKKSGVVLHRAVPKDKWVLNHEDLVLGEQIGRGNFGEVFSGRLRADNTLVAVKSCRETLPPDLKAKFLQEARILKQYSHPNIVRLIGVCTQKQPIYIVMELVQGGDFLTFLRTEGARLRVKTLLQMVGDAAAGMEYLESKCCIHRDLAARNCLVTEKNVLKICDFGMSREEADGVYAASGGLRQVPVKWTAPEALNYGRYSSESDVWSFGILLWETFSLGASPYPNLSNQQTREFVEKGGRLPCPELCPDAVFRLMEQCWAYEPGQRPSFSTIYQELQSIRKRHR
Chain of PLK1 (P53350 whole entry): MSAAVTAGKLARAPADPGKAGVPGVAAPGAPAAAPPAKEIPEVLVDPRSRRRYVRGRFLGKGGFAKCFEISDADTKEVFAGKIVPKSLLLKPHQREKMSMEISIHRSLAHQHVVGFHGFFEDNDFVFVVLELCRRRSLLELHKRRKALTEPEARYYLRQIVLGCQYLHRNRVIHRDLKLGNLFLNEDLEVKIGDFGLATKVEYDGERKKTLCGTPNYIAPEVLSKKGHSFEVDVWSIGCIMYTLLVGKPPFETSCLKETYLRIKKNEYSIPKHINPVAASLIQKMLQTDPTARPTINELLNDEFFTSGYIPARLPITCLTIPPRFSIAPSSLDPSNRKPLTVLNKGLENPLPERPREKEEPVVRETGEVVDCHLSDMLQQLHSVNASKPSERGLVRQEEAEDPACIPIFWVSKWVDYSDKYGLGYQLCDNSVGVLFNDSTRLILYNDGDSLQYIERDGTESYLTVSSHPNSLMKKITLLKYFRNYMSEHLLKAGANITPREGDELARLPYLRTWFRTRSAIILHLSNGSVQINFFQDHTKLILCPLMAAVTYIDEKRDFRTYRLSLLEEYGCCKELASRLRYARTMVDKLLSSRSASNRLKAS
Chain of TLK1 (Q9UKI8 whole entry): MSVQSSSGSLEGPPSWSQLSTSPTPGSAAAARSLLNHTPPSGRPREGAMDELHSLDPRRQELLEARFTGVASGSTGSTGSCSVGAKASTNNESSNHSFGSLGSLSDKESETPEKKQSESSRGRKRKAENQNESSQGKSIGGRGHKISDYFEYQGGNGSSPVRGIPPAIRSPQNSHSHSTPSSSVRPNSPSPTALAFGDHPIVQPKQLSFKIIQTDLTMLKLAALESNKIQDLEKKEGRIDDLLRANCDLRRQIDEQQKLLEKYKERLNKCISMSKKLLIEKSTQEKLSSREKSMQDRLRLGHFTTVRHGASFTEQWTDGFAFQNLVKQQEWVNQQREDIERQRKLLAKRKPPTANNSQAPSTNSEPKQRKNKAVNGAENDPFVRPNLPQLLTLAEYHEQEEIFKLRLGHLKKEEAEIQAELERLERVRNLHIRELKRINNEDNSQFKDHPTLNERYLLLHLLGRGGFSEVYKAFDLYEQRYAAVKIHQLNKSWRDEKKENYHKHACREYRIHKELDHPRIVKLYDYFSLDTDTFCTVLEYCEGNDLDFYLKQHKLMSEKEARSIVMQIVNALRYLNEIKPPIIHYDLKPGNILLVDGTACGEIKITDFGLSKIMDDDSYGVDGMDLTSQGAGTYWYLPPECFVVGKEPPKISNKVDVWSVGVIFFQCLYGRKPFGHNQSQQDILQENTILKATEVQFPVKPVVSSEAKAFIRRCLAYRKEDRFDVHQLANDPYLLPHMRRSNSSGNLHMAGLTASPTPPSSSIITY
Protocol for CDK3/cyclin E1: (§1) Selectivity profiling assays were performed by the Invitrogen SelectScreen™ Services. […] The concentration of ATP was selected to be equal to the KM, unless indicated otherwise.
Protocol for MAP3K5 (ASK1): as §1
Protocol for PLK1: as §1
Protocol for STK32B (YANK2): as §1
Protocol for TLK1: as §1

What is called inhibition is the relative decrease from the control value, in per cent. By Inhibition is commonly meant the change of the read-out against control, counted positive when it falls. With `C#CCOc1ccc(Nc2ncc(Cl)c(Nc3ccccc3NC(=O)C=C)n2)c(OC)c1` [Compound 6], the inhibition at 1 µM against MAP3K5 (ASK1) (setting [2]) is 6%; on MAP3K5 (ASK1) (read-out: Inhibition at 1 µM (%), MAP3K5 (ASK1), 1 µM, LanthaScreen Binding), 5%; at PLK1 (setting [2]), 12%; at PLK1 (read-out: Inhibition at 1 µM (%), PLK1, 1 µM, ZLYTE, ATP Km app) it was 15%; on TLK1 (setting [2]), 1%; on TLK1 (setting [3]), 2%. Moreover, the inhibition at 1 µM against STK32B (YANK2) (setting [2]) and on STK32B (YANK2) (setting [3]) was 7% in each case. Also, the “Inhibition at 1 µM (%)” value at MAP3K5 (ASK1) (MAP3K5 (ASK1), 1 µM, LanthaScreen Binding, listed as WEL028, 1 µM) is 8%; on CDK3/cyclin E1 it was -3%; on CDK3/cyclin E1 (listed as WEL028, 1 µM) it was 5%; on PLK1 (PLK1, 1 µM, ZLYTE, ATP Km app, listed as WEL028, 1 µM), 8%; on STK32B (YANK2) (1 µM, LanthaScreen Binding, listed as WEL028, 1 µM), 6%. In addition, the “Relative FES labeling (%)” value in assay [1] was 10.1064% and 13.5252% and 6.003%. Also, the “Inhibition (%)” value at CDK3/cyclin E1 (1 μM WEL028, 1 h preincubation) is listed as 1%.
